Measurements reported in US20120157494A1, “ISOINDOLYL COMPOUNDS” (priority 2010, published 2012).

Experiments:
hP2X7 = molecular target: T1, hP2X7 (Homo sapiens, UniProt Q99572); assay: Intracellular Calcium Flux (FLIPR) Assay; format: cell-based; details: 1321N1 cells stably expressing human P2X7; agonist 100 μM BzATP; 20 min equilibration with antagonist; read-out: FLIPR pIC50 hP2X7-1321n1 (converted)
T1 construct: 1321N1 cells stably expressing the full length human P2X7 gene (1321N1-hP2X7); expressed in transfected cells
T1 sequence (Q99572 1-595): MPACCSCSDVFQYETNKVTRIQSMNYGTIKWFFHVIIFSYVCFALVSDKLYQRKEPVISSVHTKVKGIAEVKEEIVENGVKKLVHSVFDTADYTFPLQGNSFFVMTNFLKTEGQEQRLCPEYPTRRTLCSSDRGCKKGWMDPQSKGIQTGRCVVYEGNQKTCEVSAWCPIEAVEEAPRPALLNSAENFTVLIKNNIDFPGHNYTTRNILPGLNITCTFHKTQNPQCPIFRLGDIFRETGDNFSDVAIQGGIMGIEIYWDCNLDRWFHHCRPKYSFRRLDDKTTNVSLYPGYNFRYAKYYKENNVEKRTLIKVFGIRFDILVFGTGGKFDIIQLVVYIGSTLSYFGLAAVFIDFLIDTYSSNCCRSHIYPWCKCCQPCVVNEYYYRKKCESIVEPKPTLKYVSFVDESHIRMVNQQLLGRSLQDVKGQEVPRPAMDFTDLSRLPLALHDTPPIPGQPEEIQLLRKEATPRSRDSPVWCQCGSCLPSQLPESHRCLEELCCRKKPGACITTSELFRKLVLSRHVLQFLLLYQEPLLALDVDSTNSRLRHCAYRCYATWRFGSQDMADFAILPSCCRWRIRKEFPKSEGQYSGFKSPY
Method: Stock solutions of compounds were prepared from powders as a 10 mM DMSO stock solution. These solutions were stored at RT during the two week period of these experiments to prevent freeze-thaw of the DMSO stocks. The DMSO stocks were added to the appropriate assay buffer at a concentration of 10 μM, and then diluted serially to the final concentrations that were tested. No observable precipitate was formed at any time during this process. The aqueous solutions of compounds as well as ATP (Sigma A7699) and BzATP (Sigma B6396) were prepared fresh for each day of experiment.
1321N1 cells stably expressing the full length human P2X7 gene (1321N1-hP2X7) and HEK293 cells stably expressing the full length rat P2X7 gene (HEK293-rP2X7) were obtained from the Roche Cell Culture Facility. 1321N1-hP2X7 cells were grown in Dulbecco's Modified Eagle's Medium (DMEM) high glucose supplemented with 10% FBS and 250 μg/mL G418. HEK293-rP2X7 cells were grown in DMEM/F-12 supplemented with 10% FBS, 1 mM CaCl2, 2 mM MgCl2, 2 mM L-Glutamine and 500 μg/ml G418. Cells were split such that they never became >70% confluent.
On the day prior to the experiment, 1321N1-hP2X7 or HEK293-rP2X7 cells were released into suspension with calcium-free PBS+Versene and washed by centrifugation with calcium-free PBS to remove the Versene. Cells were resuspended in growth medium at a density of 2.5×10^5 cells/mL and seeded into black walled, clear bottom 96 well plates (50,000 cells/well) approximately 18 hr prior to intracellular calcium flux experiments.
On the day of the experiment, plates were washed with FLIPR buffer (calcium- and magnesium-free Hank's Balanced Salt Solution (HBSS) supplemented with 10 mM Hepes, 2.5 mM probenecid and 2 mM calcium chloride) using a BIO-TEK 96 channel plate washer and incubated with […] fluo-3 dye at 37° C. for one hr. The dye was then removed by plate washing and the cells were allowed to equilibrate for 20 min at room temperature with antagonist or vehicle (FLIPR buffer). Agonist (100 μM BzATP final concentration for hP2X7; 5 μM BzATP final concentration or rP2X7) was added online with the FLIPR and fluorescence measurements made at 1 sec intervals for 60 sec followed by 3 sec intervals for a further 4 min (5 min total). A final addition of 5 μM ionomycin was made and the maximal BzATP-evoked fluorescence normalized to the maximal ionomycin-evoked fluorescence.

| SMILES | melting point [°C] | IC50 (hP2X7) [nM] |
| --- | --- | --- |
| COC[C@@H](C)N1Cc2c(ccc(Cl)c2NC(=O)Cc2ccc(F)c(C(F)(F)F)c2)C1=O [Compound I-21, N-[5-Chloro-2-((R)-2-methoxy-1-methyl-ethyl)-1-oxo-2,3-dihydro-1H-isoindol-4-yl]-2-(4-fluoro-3-trifluoromethyl-phenyl)-acetamide] | 131 to 132 | 389 |
| O=C(NCC1CCCCC1)[C@@H]1CCCN(c2cccc3c2C(=O)N(Cc2ccncc2)C3=O)C1 [Compound I-15, (R)-1-(1,3-Dioxo-2-pyridin-4-ylmethyl-2,3-dihydro-1H-isoindol-4-yl)-piperidine-3-carboxylic acid cyclohexylmethyl-amide] | 172 to 173 | 708 |
| CCOc1ccccc1CNC(=O)[C@@H]1CCCN(c2cccc3c2C(=O)N(Cc2ccncc2)C3=O)C1 [Compound I-9, (R)-1-(1,3-Dioxo-2-pyridin-4-ylmethyl-2,3-dihydro-1H-isoindol-4-yl)-piperidine-3-carboxylic acid 2-ethoxy-benzylamide] | 194 to 195 | 955 |
| C[C@H](CO)N1Cc2c(ccc(Cl)c2NC(=O)Cc2ccc(F)c(C(F)(F)F)c2)C1=O [Compound I-17, N-[5-Chloro-2-((R)-2-hydroxy-1-methyl-ethyl)-1-oxo-2,3-dihydro-1H-isoindol-4-yl]-2-(4-fluoro-3-trifluoromethyl-phenyl)-acetamide] |  | 174 |
| O=C(NCC12CC3CC(CC(C3)C1)C2)[C@@H]1CCCN(c2cccc3c2C(=O)N(Cc2ccncc2)C3=O)C1 [Compound I-3, (R)-1-(1,3-Dioxo-2-pyridin-4-ylmethyl-2,3-dihydro-1H-isoindol-4-yl)-piperidine-3-carboxylic acid (adamantan-1-ylmethyl)-amide] |  | 107 |
| O=C(NCc1cccs1)[C@@H]1CCCN(c2cccc3c2C(=O)N(Cc2ccncc2)C3=O)C1 [Compound I-8, (R)-1-(1,3-Dioxo-2-pyridin-4-ylmethyl-2,3-dihydro-1H-isoindol-4-yl)-piperidine-3-carboxylic acid (thiophen-2-ylmethyl)-amide] | 193 to 194 | 437 |
| CS(=O)(=O)c1ccccc1CNC(=O)[C@@H]1CCCN(c2cccc3c2C(=O)N(Cc2ccncc2)C3=O)C1 [Compound I-16, (R)-1-(1,3-Dioxo-2-pyridin-4-ylmethyl-2,3-dihydro-1H-isoindol-4-yl)-piperidine-3-carboxylic acid 2-methanesulfonyl-benzylamide] | 101 to 102 | 204 |
| C[C@H](CO)N1Cc2c(ccc(Cl)c2NC(=O)CC23CC4CC(CC(C4)C2)C3)C1=O [Compound I-18a, 2-Adamantan-1-yl-N-[5-chloro-2-((R)-2-hydroxy-1-methyl-ethyl)-1-oxo-2,3-dihydro-1H-isoindol-4-yl]-acetamide] |  | 39.8 |
| COCCN1Cc2c(ccc(Cl)c2NC(=O)Cc2ccc(F)c(C(F)(F)F)c2)C1=O [Compound I-20, N-[5-Chloro-2-(2-methoxy-ethyl)-1-oxo-2,3-dihydro-1H-isoindol-4-yl]-2-(4-fluoro-3-trifluoromethyl-phenyl)-acetamide] |  | 891 |
| COc1ccccc1CNC(=O)[C@H]1CCCN(c2cccc3c2C(=O)N(Cc2ccncc2)C3=O)C1 [Compound I-2, (S)-1-(1,3-Dioxo-2-pyridin-4-ylmethyl-2,3-dihydro-1H-isoindol-4-yl)-piperidine-3-carboxylic acid 2-methoxy-benzylamide] |  | 741 |
| O=C(NCc1ccccc1OC(F)(F)F)[C@@H]1CCCN(c2cccc3c2C(=O)N(Cc2ccncc2)C3=O)C1 [Compound I-7, (R)-1-(1,3-Dioxo-2-pyridin-4-ylmethyl-2,3-dihydro-1H-isoindol-4-yl)-piperidine-3-carboxylic acid 2-trifluoromethoxy-benzylamide] | 197 to 198 | 851 |
| COc1ccccc1CNC(=O)[C@@H]1CCCN(c2cccc3c2C(=O)N(Cc2cncs2)C3=O)C1 [Compound I-6, (R)-1-(1,3-Dioxo-2-thiazol-5-ylmethyl-2,3-dihydro-1H-isoindol-4-yl)-piperidine-3-carboxylic acid 2-methoxy-benzylamide] |  | 417 |
| COCC(C)N1Cc2c(NC(=O)Cc3ccc(F)c(C(F)(F)F)c3)cccc2C1=O (centres unmarked) [Compound I-19, 2-(4-Fluoro-3-trifluoromethyl-phenyl)-N-[2-(2-methoxy-1-methyl-ethyl)-1-oxo-2,3-dihydro-1H-isoindol-4-yl]-acetamide] | 151 to 152 | 331 |
| COc1ccccc1CNC(=O)[C@@H]1CCCN(c2cccc3c2C(=O)N(Cc2ccncc2)C3=O)C1 [Compound I-1b, (R)-1-(1,3-Dioxo-2-pyridin-4-ylmethyl-2,3-dihydro-1H-isoindol-4-yl)-piperidine-3-carboxylic acid 2-methoxy-benzylamide] |  | 55 |
| C[C@H](CO)N1Cc2c(NC(=O)CC34CC5CC(CC(C5)C3)C4)c(Cl)cc(Cl)c2C1=O [Compound I-18b, 2-Adamantan-1-yl-N-[5,7-dichloro-2-((R)-2-hydroxy-1-methyl-ethyl)-1-oxo-2,3-dihydro-1H-isoindol-4-yl]-acetamide] |  | 537 |
| O=C(NCC1COCCO1)[C@@H]1CCCN(c2cccc3c2C(=O)N(Cc2ccncc2)C3=O)C1 (stereo partly drawn) [Compound I-14, (R)-1-(1,3-Dioxo-2-pyridin-4-ylmethyl-2,3-dihydro-1H-isoindol-4-yl)-piperidine-3-carboxylic acid ([1,4]dioxan-2-ylmethyl)-amide] | 186 to 187 | 912 |
| O=C(NCc1ccccc1F)[C@@H]1CCCN(c2cccc3c2C(=O)N(Cc2ccncc2)C3=O)C1 [Compound I-13, (R)-1-(1,3-Dioxo-2-pyridin-4-ylmethyl-2,3-dihydro-1H-isoindol-4-yl)-piperidine-3-carboxylic acid 2-fluoro-benzylamide] | 196 to 197 | 110 |
| COc1ccccc1CNC(=O)[C@@H]1CCCN(c2cccc3c2C(=O)N(CC2CCOCC2)C3=O)C1 [Compound I-5, (R)-1-[1,3-Dioxo-2-(tetrahydro-pyran-4-ylmethyl)-2,3-dihydro-1H-isoindol-4-yl]-piperidine-3-carboxylic acid 2-methoxy-benzylamide] |  | 355 |
| COc1ccccc1CNC(=O)C1CCCN(c2cccc3c2C(=O)N(Cc2ccncc2)C3=O)C1 (centres unmarked) [Compound I-1a, 1-(1,3-Dioxo-2-pyridin-4-ylmethyl-2,3-dihydro-1H-isoindol-4-yl)-piperidine-3-carboxylic acid 2-methoxy-benzylamide] |  | 155 |
| COc1cccc(CNC(=O)[C@@H]2CCCN(c3cccc4c3C(=O)N(Cc3ccncc3)C4=O)C2)c1OC [Compound I-10, (R)-1-(1,3-Dioxo-2-pyridin-4-ylmethyl-2,3-dihydro-1H-isoindol-4-yl)-piperidine-3-carboxylic acid 2,3-dimethoxy-benzylamide] | 199 to 200 | 182 |
| COc1ccccc1NC(=O)[C@@H]1CCCN(c2cccc3c2C(=O)N(Cc2ccncc2)C3=O)C1 [Compound I-4, (R)-1-(1,3-Dioxo-2-pyridin-4-ylmethyl-2,3-dihydro-1H-isoindol-4-yl)-piperidine-3-carboxylic acid (2-methoxy-phenyl)-amide] |  | 724 |
| CSc1ccccc1CNC(=O)[C@@H]1CCCN(c2cccc3c2C(=O)N(Cc2ccncc2)C3=O)C1 [Compound I-12, (R)-1-(1,3-Dioxo-2-pyridin-4-ylmethyl-2,3-dihydro-1H-isoindol-4-yl)-piperidine-3-carboxylic acid 2-methylsulfanyl-benzylamide] |  | 30.9 |
